The source of these data is patent publication US7763234B2, “Pharmaceutical compounds” (GE Healthcare AS, priority 2005, dated 2010).

This assay has as its target T1, ACE (Sigma A-6778) (Oryctolagus cuniculus, UniProt P12822).
T1 construct: purchased Sigma A-6778
T1 sequence (P12822 34-1310): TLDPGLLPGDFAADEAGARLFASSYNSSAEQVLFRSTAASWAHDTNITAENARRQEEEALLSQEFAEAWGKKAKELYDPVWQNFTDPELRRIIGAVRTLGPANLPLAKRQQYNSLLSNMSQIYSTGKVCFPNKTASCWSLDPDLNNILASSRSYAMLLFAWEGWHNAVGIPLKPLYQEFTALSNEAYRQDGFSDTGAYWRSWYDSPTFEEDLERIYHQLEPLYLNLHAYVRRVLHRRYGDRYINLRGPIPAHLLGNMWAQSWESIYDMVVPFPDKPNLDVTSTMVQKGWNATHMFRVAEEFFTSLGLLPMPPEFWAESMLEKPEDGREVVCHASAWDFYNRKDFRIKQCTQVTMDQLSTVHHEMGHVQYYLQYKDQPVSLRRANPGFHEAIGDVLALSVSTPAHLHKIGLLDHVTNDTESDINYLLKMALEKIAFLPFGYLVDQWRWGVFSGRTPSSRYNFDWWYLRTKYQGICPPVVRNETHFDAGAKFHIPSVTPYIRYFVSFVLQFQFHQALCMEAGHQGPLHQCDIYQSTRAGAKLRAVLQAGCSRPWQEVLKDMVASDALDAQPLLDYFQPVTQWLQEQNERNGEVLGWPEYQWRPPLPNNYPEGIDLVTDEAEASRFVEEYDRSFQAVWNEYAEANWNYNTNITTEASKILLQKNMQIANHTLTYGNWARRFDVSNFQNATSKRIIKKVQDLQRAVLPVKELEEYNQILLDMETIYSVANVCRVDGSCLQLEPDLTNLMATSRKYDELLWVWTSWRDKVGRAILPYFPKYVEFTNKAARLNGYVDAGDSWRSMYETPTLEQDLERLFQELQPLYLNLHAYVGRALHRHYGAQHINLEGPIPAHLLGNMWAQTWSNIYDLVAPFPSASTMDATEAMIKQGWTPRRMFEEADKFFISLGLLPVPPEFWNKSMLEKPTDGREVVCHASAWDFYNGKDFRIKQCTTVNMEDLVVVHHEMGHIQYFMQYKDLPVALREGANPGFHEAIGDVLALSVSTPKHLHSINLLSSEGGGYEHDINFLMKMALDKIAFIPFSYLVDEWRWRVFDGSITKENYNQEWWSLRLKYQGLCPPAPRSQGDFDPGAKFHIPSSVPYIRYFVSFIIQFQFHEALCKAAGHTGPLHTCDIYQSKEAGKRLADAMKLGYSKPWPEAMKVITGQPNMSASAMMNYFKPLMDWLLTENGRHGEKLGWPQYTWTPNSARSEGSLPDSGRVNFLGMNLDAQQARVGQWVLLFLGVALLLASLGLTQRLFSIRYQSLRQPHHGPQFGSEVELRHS
Put plainly: ACE cleavage of Ang I peptide analogues (LC-MS). In kind it is biochemical. The following applies: after 120 min; 0.1 mg peptide in 100 μL ACE stock solution (0.34 mg/mL, 200 mM HEPES pH 7.8), room temperature. The method, then:
ACE stock solution was prepared: 0.34 mg ACE (Sigma A-6778) was dissolved in 1 mL 200 mM HEPES adjusted to pH 7.8 using KOH.
0.1 mg of the Ang I peptide analogue was dissolved in 100 μL of the ACE stock solution and the solution incubated at room temperature. Samples (10 μL) were withdrawn from the solution, diluted with H2O/0.1% TFA (400 μL) and analysed by LC-MS.

Numbered stars: 1 amine (or outer) side, 2 acyl side, 3 side chain; on linkers, the order of the positions; unused ones are H or OH. Square brackets hold non-standard residues; d marks the D form. Peptide text beside a SMILES is read from it. ξ: configuration not given here. X1 = C/C(=N/O)C(C)(C)NCCC(CCNC(C)(C)/C(C)=N\O)CCN(CC(=O)[*:2])[*:1]; Ile(3ξ) = CCC(C)[C@H](N)C(=O)O

Molecule `CCC(C)[C@H](NC(=O)[C@H](Cc1ccc(O)cc1)NC(=O)[C@@H](NC(=O)[C@H](CCCNC(=N)N)NC(=O)CNCCC(CCNC(C)(C)/C(C)=N\O)CCNC(C)(C)/C(C)=N\O)C(C)C)C(=O)N[C@@H](Cc1cnc[nH]1)C(=O)N1CCC[C@H]1C(=O)N[C@@H](Cc1ccccc1)C(=O)N[C@@H](Cc1cnc[nH]1)C(=O)N[C@@H](CC(C)C)C(=O)O` (stereo partly drawn) [cPn216-Gly-Arg-Val-Tyr-Ile-His-Pro-Phe-His-Leu-OH] (H-[X1]RVY[Ile(3ξ)]HPFHL-OH) gave a percent cleavage/time of 40%/120 min.
“Ang I: the decapeptide Ang I, formed from angiotensinogen by renin and converted by ACE to the active Ang II” returned a percent cleavage/time of 40%/120 min.
